# Measurements: US11207420B2, “Cytotoxin and conjugate, uses of same and preparation method therefor” (priority 2017, dated 2021)
# Square brackets hold non-standard residues; d marks the D form. Peptide text beside a SMILES is read from it. * marks the point of attachment. ξ: configuration not given here. Dolaproine = CO[C@@H]([C@@H]1CCCN1)[C@@H](C)C(=O)O; Dil = CC[C@H](C)[C@H](NC)[C@@H](CC(=O)O)OC; d(β3hF) = N[C@@H](CC(=O)O)Cc1ccccc1; NH(4-aminobenzyl) = Nc1ccc(CN*)cc1; NMe2Val = CC(C)[C@@H](C(=O)*)N(C)C; β3hF = N[C@H](CC(=O)O)Cc1ccccc1; NMeV = CN[C@H](C(=O)O)C(C)C; ξF = NC(Cc1ccccc1)C(=O)O; X1 = CN(Cc1ccc(N)cc1)*
# Columns and labels:
# MDA-MB-468 = test: Inhibitory effect of small molecule toxins on cell proliferation in vitro (CCK8); format: cell-based; settings: MDA-MB-468, 7500 cells/well, 4 days
# Experimental: (§1) First, tumor cells MDA-MB-468 and NCI-H322M were cultured; the small molecule toxins of the present invention, maytansin derivative (DM1, Nanjing Lianning), monomethyl auristatin F (MMAF, Nanjing Lianning) were co-cultured respectively with the tumor cells. Then, CCK8 reagent (Dongren Chemical Technology Co., Ltd.) was added, followed by detection with the microplate reader (manufacturer: Molecular Devices, model: SpectraMax M2) (wavelength: 450 nm). The activity of dehydrogenase in mitochondria was detected, to evaluate the inhibitory effect of small molecule toxins on cell proliferation.
# (§2) Test of cell activity in vitro: toxins were diluted (10 concentration gradients) with the corresponding test medium (containing 2% FBS). Tumor cells were trypsinized by a conventional method using trypsin, and cells were collected by tube and resuspended in the corresponding test medium (containing 2% FBS). The diluted toxins were added to a 96-well plate, to which were added the cells. Thereafter, 20 μL of CCK8 reagent was added to each well, and reaction was carried out for 4 hours, followed by detection with the microplate reader (wavelength: 450 nm).
# NCI-H322M = test: as above; format: cell-based; settings: 5000 cells/well, 3 days, starting at 20000 nM, 5-fold dilution
# Experimental: as §1, §2
# [1] = Table 2, 3-fold dilution starting at 10000 nM (T001: 500 nM)
# [2] = Homo sapiens, MDA-MB-468, 96 h, Table 3, starting at 10 nM, 2-fold dilution
Structure (SMILES),EC50 (MDA-MB-468; [2]) [nM],also measured
"COc1cc2cc(c1Cl)N(C)C(=O)C[C@H](OC(=O)[C@H](C)N(C)C(=O)CCS)[C@]1(C)O[C@H]1[C@H](C)[C@@H]1C[C@@](O)(NC(=O)O1)[C@H](OC)/C=C/C=C(\C)C2 [maytansin derivative (DM1), reference compound]",–,EC50 (MDA-MB-468; [1]): 7.61 nM; EC50 (NCI-H322M): 38.8 nM
CC[C@H](C)[C@@H]([C@@H](CC(=O)N1CCC[C@H]1[C@H](OC)[C@@H](C)C(=O)N[C@@H](CC(C)C)C(=O)NCc1ccc(N)cc1)OC)N(C)C(=O)[C@@H](NC(=O)[C@H](C(C)C)N(C)C)C(C)C [Example T018] (NMe2Val-V[Dil][Dolaproine]L-{NH(4-aminobenzyl)}),2.35,–
"CC[C@H](C)[C@@H]([C@@H](CC(=O)N1CCC[C@H]1[C@H](OC)[C@@H](C)C(=O)N[C@H](Cc1ccccc1)C(=O)N(C)Cc1ccc(N)cc1)OC)N(C)C(=O)[C@@H](NC(=O)[C@H](C(C)C)N(C)C)C(C)C [Example T002, (S)—N-((3R,4 S,5 S)-1-((S)-2-((1R,2R)-3-(((R)-1-((4-aminobenzyl)(methyl)amino)-1-oxo-3-phenylprop-2-yl)amino)-1-methoxy-2-methyl-3-propionyl)pyrrolidin-1-yl)-3-methoxy-5-methyl-1-heptanoyl-4-yl)-2-((S)-2-(dimethylamino)-3-methylbutyramido)-N,3-dimethylbutyramide] (NMe2Val-V[Dil][Dolaproine][dF]-X1)",> 10,–
"CC[C@H](C)[C@@H]([C@@H](CC(=O)N1CCC[C@H]1[C@H](OC)[C@@H](C)C(=O)N[C@@H](Cc1ccccc1)C(=O)N(C)Cc1ccc(N)cc1)OC)N(C)C(=O)[C@@H](NC(=O)[C@H](C(C)C)N(C)C)C(C)C [Example T003, (S)—N-((3R,4S,5 S)-1-((S)-2-((1R,2R)-3-(((S)-1-((4-aminobenzyl)(methyl)amino)-1-oxo-3-phenylprop-2-yl)amino)-1-methoxy-2-methyl-3-propionyl)pyrrolidin-1-yl)-3-methoxy-5-methyl-1-heptanoyl-4-yl)-2-((S)-2-(dimethylamino)-3-methylbutyramido)-N,3-dimethylbutyramide] (NMe2Val-V[Dil][Dolaproine]F-X1)",3.2,–
"CC[C@H](C)[C@@H]([C@@H](CC(=O)N1CCC[C@H]1[C@H](OC)[C@@H](C)C(=O)N[C@@H](Cc1ccccc1)C(=O)O)OC)N(C)C(=O)[C@@H](NC(=O)[C@@H](NC)C(C)C)C(C)C [monomethyl auristatin F (MMAF), monomethyl auristatin F, reference compound] (H-[NMeV]V[Dil][Dolaproine]F-OH)",–,EC50 (MDA-MB-468; [1]): 98.4 nM; EC50 (NCI-H322M): 118 nM
"CC[C@H](C)[C@@H]([C@@H](CC(=O)N1CCC[C@H]1[C@H](OC)[C@@H](C)C(=O)NC(Cc1ccccc1)C(=O)NCc1ccc(N)cc1)OC)N(C)C(=O)[C@@H](NC(=O)[C@H](C(C)C)N(C)C)C(C)C (stereo partly drawn) [Example T001, (2S)—N-((3R,4S,5 S)-1-((2S)-2-((1R,2R)-3-((1-((4-aminobenzyl)amino)-1-oxo-3-phenylprop-2-yl)amino)-1-methoxy-2-methyl-3-propionyl)pyrrolidin-1-yl)-3-methoxy-5-methyl-1-heptanoyl-4-yl)-2-((S)-2-(dimethylamino)-3-methylbutyramido)-N,3-dimethylbutyramide] (NMe2Val-V[Dil][Dolaproine][ξF]-{NH(4-aminobenzyl)})",1.13,"EC50 (MDA-MB-468; Homo sapiens, MDA-MB-468, 96 h, Table 2, 3-fold dilution starting at 10000 nM (T001: 500 nM)): 0.538 nM; EC50 (NCI-H322M; Homo sapiens, 72 h): 2 nM"
CC[C@H](C)[C@@H]([C@@H](CC(=O)N1CCC[C@H]1[C@H](OC)[C@@H](C)C(=O)N[C@@H](Cc1ccccc1)C(=O)NCc1ccc(N)cc1)OC)N(C)C(=O)[C@@H](NC(=O)[C@H](C(C)C)N(C)C)C(C)C [Example T011] (NMe2Val-V[Dil][Dolaproine]F-{NH(4-aminobenzyl)}),0.211,–
"CC[C@H](C)[C@@H]([C@@H](CC(=O)N1CCC[C@H]1[C@H](OC)[C@@H](C)C(=O)N[C@@H](CC(=O)NCc1ccc(N)cc1)Cc1ccccc1)OC)N(C)C(=O)[C@@H](NC(=O)[C@H](C(C)C)N(C)C)C(C)C [Example T014, (S)—N-((3R,4S,5 S)-1-((S)-2-((1R,2R)-3-(((R)-4-((4-aminobenzyl)amino)-4-oxo-1-phenylbut-2-yl)amino)-1-methoxy-2-methyl-3-oxopropyl)pyrrolidin-1-yl)-3-methoxy-5-methyl-1-oxoheptyl-4-yl)-2-((S)-2-(dimethylamino)-3-methylbutyramido)-N,3-dimethylbutyramide] (NMe2Val-V[Dil][Dolaproine][d(β3hF)]-{NH(4-aminobenzyl)})",1.24,–
CC[C@H](C)[C@@H]([C@@H](CC(=O)N1CCC[C@H]1[C@H](OC)[C@@H](C)C(=O)N[C@H](C(=O)NCc1ccc(N)cc1)C(C)C)OC)N(C)C(=O)[C@@H](NC(=O)[C@H](C(C)C)N(C)C)C(C)C [Example T019] (NMe2Val-V[Dil][Dolaproine]V-{NH(4-aminobenzyl)}),1.16,–
"CC[C@H](C)[C@@H]([C@@H](CC(=O)N1CCC[C@H]1[C@H](OC)[C@@H](C)C(=O)N[C@H](CC(=O)NCc1ccc(N)cc1)Cc1ccccc1)OC)N(C)C(=O)[C@@H](NC(=O)[C@H](C(C)C)N(C)C)C(C)C [Example T013, (S)—N-((3R,4S,5 S)-1-((S)-2-((1R,2R)-3-(((S)-4-((4-aminobenzyl)amino)-4-oxo-1-phenylbut-2-yl)amino)-1-methoxy-2-methyl-3-oxopropyl)pyrrolidin-1-yl)-3-methoxy-5-methyl-1-oxoheptyl-4-yl)-2-((S)-2-(dimethylamino)-3-methylbutyramido)-N,3-dimethylbutyramide] (NMe2Val-V[Dil][Dolaproine][β3hF]-{NH(4-aminobenzyl)})",0.414,–
CC[C@H](C)[C@@H]([C@@H](CC(=O)N1CCC[C@H]1[C@H](OC)[C@@H](C)C(=O)N[C@@H](C)C(=O)NCc1ccc(N)cc1)OC)N(C)C(=O)[C@@H](NC(=O)[C@H](C(C)C)N(C)C)C(C)C [Example T016] (NMe2Val-V[Dil][Dolaproine]A-{NH(4-aminobenzyl)}),5.71,–
"CC[C@H](C)[C@@H]([C@@H](CC(=O)N1CCC[C@H]1[C@H](OC)[C@@H](C)C(=O)NCC(=O)NCc1ccc(N)cc1)OC)N(C)C(=O)[C@@H](NC(=O)[C@H](C(C)C)N(C)C)C(C)C [Example T015, (S)—N-((3R,4S,5 S)-1-((S)-2-((1R,2R)-3-((2-((4-aminobenzyl)amino)-2-oxoethyl)amino)-1-methoxy-2-methyl-3-oxopropyl)pyrrolidin-1-yl)-3-methoxy-5-methyl-1-oxoheptyl-4-yl)-2-((S)-2-(dimethylamino)-3-methylbutyramido)-N,3-dimethylbutyramide] (NMe2Val-V[Dil][Dolaproine]G-{NH(4-aminobenzyl)})",7.43,–
CC[C@H](C)[C@@H]([C@@H](CC(=O)N1CCC[C@H]1[C@H](OC)[C@@H](C)C(=O)N[C@H](Cc1ccccc1)C(=O)NCc1ccc(N)cc1)OC)N(C)C(=O)[C@@H](NC(=O)[C@H](C(C)C)N(C)C)C(C)C [Example T012] (NMe2Val-V[Dil][Dolaproine][dF]-{NH(4-aminobenzyl)}),1.62,–
